According to US8178506B2, “Oligomeric compounds and compositions for use in modulation of small non-coding RNAs” (Regulus Therapeutics Inc., priority 2003, dated 2012):
In the oligonucleotide strings, read from the 5' end, every base follows the letter of its sugar. An asterisk marks phosphorothioate; unmarked linkages are phosphodiester. Other units and linkages are bracketed, terminal groups are in braces. A string of capitals states the bases alone. e = 2'-O-(2-methoxyethyl) (MOE); [5mC] = 5-methylcytosine

Test system: mir-23b miRNA
Test: pGL3-mir-23b sensor luciferase assay in HeLa cells
Type: cell-based, human
Conditions: pGL3-mir-23b sensor-expressing HeLa cells
Excerpt: In order to assess the ability of miRNAs to bind predicted miRNA binding sites and regulate the expression of the luciferase reporter, in some embodiments, expression systems based on the pGL3-Control (Promega Corp., Madison Wis.) reporter vector and comprising either a mir-15a, mir-21, or a mir-23b miRNA binding site were developed and used in transient transfections of HeLa cells to determine whether the endogenous mir-15a, mir-21, or mir-23b miRNAs, respectively, could repress luciferase reporter gene expression.
The pGL3-mir-23b sensor plasmid was created by cloning the sequence ([…]; SEQ ID NO: 307), representing a sequence complementary to the mir-23b miRNA, into the Xba site of the pGL3-Control plasmid, placing the potential miRNA-binding site in the 3′UTR of the luciferase reporter. This reporter plasmid was used to transfect HeLa cells and it was observed that the endogenous mir-23b miRNA was able to inhibit luciferase expression from the pGL3-mir-23b sensor plasmid. Thus, to further evaluate the ability of the mir-23b miRNA to bind this target site encoded by the pGL3-mir-23b sensor plasmid, and to assess the ability of oligomeric compounds to interfere with mir-23b-mediated silencing, pGL3-mir-23b sensor-expressing HeLa cells were treated with varying concentrations (1.3-, 5- or 20 nM) of the following oligomeric compounds: ISIS Number 327889 (SEQ ID NO: 307), a phosphorothioate uniform 2′-MOE oligomeric compound, and ISIS Number 340925 (SEQ ID NO: 307), a 2′-MOE 5-10-8 gapmer oligomeric compound, both targeting mir-23b. The uniform 2′-MOE phosphorothioate oligomeric compound ISIS Number 327924 (SEQ ID NO: 342) targeting an unrelated miRNA (mir-129-2) was used as a negative control. The data are the average of three trials, and are presented in Table 43 as relative luciferase activity (normalized to pRL-CMV luciferase plasmid only, not treated with oligomeric compound).

## 327889 (antisense eG*eT*eG*eG*eT*eA*eA*eT*e[5mC]*e[5mC]*e[5mC]*eT*eG*eG*e[5mC]*eA*eA*eT*eG*eT*eG*eA*eT) [compound 327889]
1.3 nM
  Fold change luciferase: 3.75
5 nM
  Fold change luciferase: 3.46
20 nM
  Fold change luciferase: 7.40
